Experiments:
Assay in all cases: Test C greenhouse herbicide test, pre- and postemergence
Type in all cases: in vivo
soybean (Glycine max) = system: soybean (Glycine max)
Text: (§1) Seeds of plant species selected from blackgrass (Alopecurus myosuroides), ryegrass, Italian (Italian ryegrass, Lolium multiflorum), wheat (winter wheat, Triticum aestivum), galium (catchweed bedstraw, Galium aparine), corn (Zea mays), large crabgrass, large (large crabgrass, Digitaria sanguinalis), foxtail, giant (giant foxtail, Setaria faberii), johnsongrass (Sorghum halepense), lambsquarters (Chenopodium album), morningglory (Ipomoea coccinea), nutsedge, yellow (yellow nutsedge, Cyperus esculentus), pigweed (Amaranthus retroflexus), ragweed (common ragweed, Ambrosia elatior), soybean (Glycine max), barnyardgrass (Echinochloa crus-galli), oilseed rape (Brassica napus), waterhemp (common waterhemp, Amaranthus rudis), and velvetleaf (Abutilon theophrasti) were planted into a blend of loam soil and sand and treated preemergence with test chemicals formulated in a non-phytotoxic solvent mixture which included a surfactant.
(§2) At the same time, plants selected from these crop and weed species and also chickweed (common chickweed, Stellaria media), kochia (Kochia scoparia), and oat, wild (wild oat, Avena fatua), were planted in pots containing Redi-Earth® planting medium (Scotts Company, 14111 Scottslawn Road, Marysville, Ohio 43041) comprising spaghnum peat moss, vermiculite, wetting agent and starter nutrients and treated with postemergence applications of test chemicals formulated in the same manner. Plants ranged in height from 2 to 18 cm (1- to 4-leaf stage) for postemergence treatments. Treated plants and controls were maintained in a greenhouse for 13 to 15 d, after which time all species were compared to controls and visually evaluated. Plant response ratings, summarized in Table C, are based on a scale of 0 to 100 where 0 is no effect and 100 is complete control. A dash (-) response means no test result.

[1] = system: foxtail, giant (giant foxtail, Setaria faberii)
Text: as §1, §2

[2] = system: waterhemp (common waterhemp, Amaranthus rudis)
Text: as §1, §2

[3] = system: wheat (winter wheat, Triticum aestivum)
Text: as §1, §2

[4] = system: lambsquarters (Chenopodium album)
Text: as §1, §2

[5] = system: oilseed rape (Brassica napus)
Text: as §1, §2

[6] = system: johnsongrass (Sorghum halepense)
Text: as §1, §2

[7] = system: galium (catchweed bedstraw, Galium aparine)
Text: as §1, §2

[8] = system: velvetleaf (Abutilon theophrasti)
Text: as §1, §2

[9] = system: blackgrass (Alopecurus myosuroides)
Text: as §1, §2

[10] = system: ragweed (common ragweed, Ambrosia elatior)
Text: as §1, §2

[11] = system: pigweed (Amaranthus retroflexus)
Text: as §1, §2

[12] = system: barnyardgrass (Echinochloa crus-galli)
Text: as §1, §2

[13] = system: nutsedge, yellow (yellow nutsedge, Cyperus esculentus)
Text: as §1, §2

[14] = system: morningglory (Ipomoea coccinea)
Text: as §1, §2

[15] = system: crabgrass, large (large crabgrass, Digitaria sanguinalis)
Text: as §1, §2

[16] = Postemergence, 31 g ai/ha, 0 to 100 scale (0 no effect, 100 complete control)
[17] = Postemergence, 125 g ai/ha, scale 0 to 100, 0 is no effect, 100 is complete control
[18] = Postemergence, 250 g ai/ha, scale 0 to 100, 0 no effect, 100 complete control, 13 to 15 d
[19] = Preemergence, 62 g ai/ha, scale 0 to 100, 0 is no effect, 100 is complete control
[20] = Preemergence, 125 g ai/ha, scale 0 to 100, 0 is no effect, 100 is complete control
[21] = Preemergence, 250 g ai/ha, scale 0 to 100 (0 no effect, 100 complete control)
[22] = postemergence, 62 g ai/ha, scale 0 to 100, 0 no effect, 100 complete control
[23] = Preemergence, 31 g ai/ha, scale 0 to 100, 0 is no effect, 100 is complete control

CCC(=O)Oc1c(C)nn(C)c(=O)c1-c1c(C)sc2c(C)cc(C)cc12 [Compound 28]
95: Plant response rating, Foxtail, Giant [1, 18] | Plant response rating, Galium [7, 23] | Plant response rating, Galium [7, 19] | Plant response rating, Galium [7, 20] | Galium plant response rating [7, 21] | Velvetleaf plant response rating [8, 21] | Plant response rating, Ragweed [10, 20] | Barnyardgrass plant response rating [12, 21] | Morningglory plant response rating [14, 16]
85: Plant response rating, Foxtail, Giant [1, 17] | Plant response rating, Foxtail, Giant [1, 23] | Plant response rating, Waterhemp [2, 17] | Plant response rating, Waterhemp [2, 18] | Plant response rating, Waterhemp [2, 20] | Lambsquarters plant response rating [4, 16] | Plant response rating, Lambsquarters [4, 19] | Plant response rating, Lambsquarters [4, 20] | Plant response rating, Oilseed Rape [5, 20] | Plant response rating, Velvetleaf [8, 17] | Plant response rating, Velvetleaf [8, 19] | Velvetleaf plant response rating [8, 22] | Plant response rating, Blackgrass [9, 23] | Plant response rating, Ragweed [10, 17] | Pigweed plant response rating [11, 22] | Plant response rating, Nutsedge, Yellow [13, 17] | Plant response rating, Nutsedge, Yellow [13, 20] | Nutsedge, Yellow plant response rating [13, 22] | Crabgrass, Large plant response rating [15, 21]
65: Plant response rating, Lambsquarters [4, 23] | Ragweed plant response rating [10, 16]
100: Plant response rating, Foxtail, Giant [1, 19] | Plant response rating, Foxtail, Giant [1, 20] | Foxtail, Giant plant response rating [1, 21] | Waterhemp plant response rating [2, 21] | Plant response rating, Lambsquarters [4, 17] | Plant response rating, Lambsquarters [4, 18] | Galium plant response rating [7, 16] | Plant response rating, Galium [7, 17] | Plant response rating, Galium [7, 18] | Galium plant response rating [7, 22] | Plant response rating, Pigweed [11, 23] | Plant response rating, Pigweed [11, 19] | Plant response rating, Pigweed [11, 20] | Pigweed plant response rating [11, 21] | Plant response rating, Morningglory [14, 17] | Plant response rating, Morningglory [14, 18] | Morningglory plant response rating [14, 21]
75: Plant response rating, Waterhemp [2, 19] | Waterhemp plant response rating [2, 22] | Ragweed plant response rating [10, 22] | Plant response rating, Barnyardgrass [12, 19] | Nutsedge, Yellow plant response rating [13, 16] | Plant response rating, Nutsedge, Yellow [13, 19]
98: Lambsquarters plant response rating [4, 22] | Plant response rating, Morningglory [14, 19] | Plant response rating, Morningglory [14, 20] | Morningglory plant response rating [14, 22]
80: Foxtail, Giant plant response rating [1, 22] | Plant response rating, Blackgrass [9, 17] | Plant response rating, Morningglory [14, 23] | Plant response rating, Crabgrass, Large [15, 20]
25: Plant response rating, Soybean (soybean (Glycine max); [19]) | Barnyardgrass plant response rating [12, 22] | Crabgrass, Large plant response rating [15, 16] | Plant response rating, Crabgrass, Large [15, 23]
35: Plant response rating, Barnyardgrass [12, 17]
45: Plant response rating, Barnyardgrass [12, 23] | Plant response rating, Crabgrass, Large [15, 18]
90: Lambsquarters plant response rating [4, 21] | Oilseed Rape plant response rating [5, 21] | Plant response rating, Velvetleaf [8, 18] | Plant response rating, Velvetleaf [8, 20] | Plant response rating, Blackgrass [9, 18] | Plant response rating, Blackgrass [9, 19] | Plant response rating, Blackgrass [9, 20] | Blackgrass plant response rating [9, 21] | Plant response rating, Ragweed [10, 18] | Plant response rating, Ragweed [10, 19] | Ragweed plant response rating [10, 21] | Plant response rating, Pigweed [11, 17] | Plant response rating, Pigweed [11, 18] | Plant response rating, Barnyardgrass [12, 20] | Plant response rating, Nutsedge, Yellow [13, 18]
20: Plant response rating, Oilseed Rape [5, 19] | Barnyardgrass plant response rating [12, 16] | Crabgrass, Large plant response rating [15, 22]
0: Soybean plant response rating (soybean (Glycine max); [16]) | Plant response rating, Soybean (soybean (Glycine max); [17]) | Plant response rating, Soybean (soybean (Glycine max); [20]) | Soybean plant response rating (soybean (Glycine max); [22]) | Wheat plant response rating [3, 16] | Plant response rating, Wheat [3, 17] | Plant response rating, Wheat [3, 19] | Plant response rating, Wheat [3, 20] | Wheat plant response rating [3, 22] | Plant response rating, Oilseed Rape [5, 23] | Plant response rating, Johnsongrass [6, 23] | Plant response rating, Johnsongrass [6, 19]
50: Soybean plant response rating (soybean (Glycine max); [21]) | Blackgrass plant response rating [9, 16] | Plant response rating, Nutsedge, Yellow [13, 23]
30: Plant response rating, Johnsongrass [6, 18]
5: Plant response rating, Soybean (soybean (Glycine max); [18]) | Plant response rating, Wheat [3, 18] | Oilseed Rape plant response rating [5, 16] | Plant response rating, Oilseed Rape [5, 17] | Johnsongrass plant response rating [6, 16] | Plant response rating, Johnsongrass [6, 20] | Johnsongrass plant response rating [6, 22]
60: Foxtail, Giant plant response rating [1, 16] | Waterhemp plant response rating [2, 16] | Oilseed Rape plant response rating [5, 22] | Pigweed plant response rating [11, 16] | Plant response rating, Crabgrass, Large [15, 19]
40: Plant response rating, Barnyardgrass [12, 18] | Plant response rating, Crabgrass, Large [15, 17]
10: Wheat plant response rating [3, 21] | Johnsongrass plant response rating [6, 21]
70: Plant response rating, Oilseed Rape [5, 18] | Velvetleaf plant response rating [8, 16] | Blackgrass plant response rating [9, 22] | Plant response rating, Ragweed [10, 23] | Nutsedge, Yellow plant response rating [13, 21]

COc1nn(C)c(=O)c(-c2c(C)sc3ccccc23)c1O [Compound 33]
45: Plant response rating, Nutsedge, Yellow [13, 17]
55: Oilseed Rape plant response rating [5, 22]
70: Plant response rating, Foxtail, Giant [1, 18]
90: Lambsquarters plant response rating [4, 16] | Galium plant response rating [7, 16] | Galium plant response rating [7, 22] | Plant response rating, Ragweed [10, 17]
0: Soybean plant response rating (soybean (Glycine max); [16]) | Plant response rating, Soybean (soybean (Glycine max); [17]) | Plant response rating, Soybean (soybean (Glycine max); [18]) | Soybean plant response rating (soybean (Glycine max); [22]) | Wheat plant response rating [3, 16] | Plant response rating, Wheat [3, 17] | Plant response rating, Wheat [3, 18] | Wheat plant response rating [3, 22] | Johnsongrass plant response rating [6, 16] | Blackgrass plant response rating [9, 16] | Blackgrass plant response rating [9, 22]
98: Plant response rating, Lambsquarters [4, 17] | Plant response rating, Ragweed [10, 18] | Plant response rating, Morningglory [14, 18]
100: Plant response rating, Lambsquarters [4, 18]
30: Waterhemp plant response rating [2, 22] | Plant response rating, Oilseed Rape [5, 17] | Pigweed plant response rating [11, 16]
95: Lambsquarters plant response rating [4, 22] | Plant response rating, Galium [7, 17] | Plant response rating, Galium [7, 18] | Ragweed plant response rating [10, 22] | Plant response rating, Morningglory [14, 17] | Morningglory plant response rating [14, 22]
85: Plant response rating, Velvetleaf [8, 18] | Ragweed plant response rating [10, 16] | Morningglory plant response rating [14, 16]
80: Plant response rating, Pigweed [11, 18] | Plant response rating, Barnyardgrass [12, 18]
50: Plant response rating, Oilseed Rape [5, 18] | Pigweed plant response rating [11, 22] | Plant response rating, Barnyardgrass [12, 17]
65: Plant response rating, Waterhemp [2, 17] | Plant response rating, Pigweed [11, 17] | Plant response rating, Nutsedge, Yellow [13, 18]
60: Plant response rating, Foxtail, Giant [1, 17] | Velvetleaf plant response rating [8, 22]
75: Plant response rating, Waterhemp [2, 18] | Plant response rating, Velvetleaf [8, 17]
20: Foxtail, Giant plant response rating [1, 16] | Plant response rating, Crabgrass, Large [15, 17] | Crabgrass, Large plant response rating [15, 22]
5: Plant response rating, Johnsongrass [6, 17] | Johnsongrass plant response rating [6, 22] | Plant response rating, Blackgrass [9, 17] | Nutsedge, Yellow plant response rating [13, 16]
15: Nutsedge, Yellow plant response rating [13, 22]
40: Foxtail, Giant plant response rating [1, 22] | Oilseed Rape plant response rating [5, 16] | Plant response rating, Johnsongrass [6, 18]
10: Velvetleaf plant response rating [8, 16] | Plant response rating, Blackgrass [9, 18] | Crabgrass, Large plant response rating [15, 16]
25: Waterhemp plant response rating [2, 16] | Barnyardgrass plant response rating [12, 16] | Barnyardgrass plant response rating [12, 22] | Plant response rating, Crabgrass, Large [15, 18]

From US10597388B2, “Pyridazinone herbicides” (FMC CORPORATION, priority 2014, dated 2020)
